The results in this text go back to US20250179061A1 (SIRONAX LTD., priority 2022, published 2025).

The test system of this assay is HT-29 cells. Kind of assay: HT-29 necroptosis cell viability assay (TNF-α/SMAC mimetic/zVAD-FMK, CellTiter-Glo). It counts as cell-based. To be noted: Homo sapiens. The essentials: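 Necroptosis was triggered by TNF-α (10 ng/ml), SMAC mimetic (6 μM) and zVAD-FMK (10 μM) in serum-free medium during 20 h compound exposure (10 concentrations, threefold steps) of HT-29 cells. IC50 from duplicate dose-responses uses CellTiter-Glo ATP luminescence as viability read-out.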
A general note: ATP-based viability assays read luminescence as a measure of living cells.

Setting [1] is: HT-29, HT-29 necroptosis cell viability assay, class symbols for IC50, read-out: Activity.
The mark [2] stands for this setting: HT-29 cells stimulated with TNF-α (10 ng/ml), SMAC mimetic (6 μM) and zVAD-FMK (10 μM), 20 hours, CellTiter-Glo ATP luminescence, geometric mean IC50 from 10 points, read-out: Activity.
The mark [3] stands for this setting: HT-29, HT-29 necroptosis cell viability, IC50 class symbols, read-out: Activity.
Setting [4] is: HT-29, HT-29 cells, necroptosis induced by TNF-α/SMAC mimetic/zVAD-FMK, CellTiter-Glo, read-out: Activity (IC50 class).

Structures are written as SMILES. Where two headings read alike, the source gives them in different places.

As for `CCOC1(C)CN(c2nccc(Oc3ccc(-n4ncn(Cc5c(F)cccc5F)c4=O)cc3)c2F)C1` [Example 490, 4-(2,6-difluorobenzyl)-2-(4-((2-(3-ethoxy-3-methylazetidin-1-yl)-3-fluoropyridin-4-yl)oxy)phenyl)-2,4-dihydro-3H-1,2,4-triazol-3-one], under setting [1], the IC50 was below 100 nM.

Take `Cc1nc(CC#N)sc1Oc1ccc(-n2ncn(Cc3c(F)cccc3F)c2=O)cc1Cl` [Example 139, 2-(5-(2-chloro-4-(4-(2,6-difluorobenzyl)-5-oxo-4,5-dihydro-1H-1,2,4-triazol-1-yl)phenoxy)-4-methylthiazol-2-yl)acetonitrile]: the IC50 under setting [1] was below 100 nM.

With `Cc1nc(N2C[C@H](C#N)[C@@H]2C)sc1Oc1ccc(-n2ncn(Cc3c(F)cccc3F)c2=O)cc1` [Example 44, (2S,3S)-1-(5-(4-(4-(2,6-difluorobenzyl)-5-oxo-4,5-dihydro-1H-1,2,4-triazol-1-yl)phenoxy)-4-methylthiazol-2-yl)-2-methylazetidine-3-carbonitrile], the IC50 under setting [2] was below 100 nM.

Regarding `O=c1n(Cc2c(F)cccc2F)cnn1-c1ccc(Oc2nc(CO)cs2)cc1` [Example 96, 4-(2,6-difluorobenzyl)-2-(4-((4-(hydroxymethyl)thiazol-2-yl)oxy)phenyl)-2,4-dihydro-3H-1,2,4-triazol-3-one], the IC50 under setting [2] was 100 to 1000 nM.

On to `Cc1nc(C(=O)NC2COC2)sc1Oc1ccc(-n2ncn(Cc3ccccc3F)c2=O)cc1F` [Example 603, 5-(2-fluoro-4-(4-(2-fluorobenzyl)-5-oxo-4,5-dihydro-1H-1,2,4-triazol-1-yl)phenoxy)-4-methyl-N-(oxetan-3-yl)thiazole-2-carboxamide], for which the IC50 under setting [1] was below 100 nM.

For the molecule `CN(C)C1(C)CN(c2cc(Oc3ccc(-n4ncn(Cc5c(F)cccc5F)c4=O)cc3F)c(F)cn2)C1` [Example 371, 4-(2,6-difluorobenzyl)-2-(4-((2-(3-(dimethylamino)-3-methylazetidin-1-yl)-5-fluoropyridin-4-yl)oxy)-3-fluorophenyl)-2,4-dihydro-3H-1,2,4-triazol-3-one], the IC50 under setting [3] fell in the range of 100 to 1000 nM.

With `Cc1nc(C#N)sc1Oc1ccc(-n2ncn(Cc3cc(F)ccc3F)c2=O)cc1F` [Example 572, 5-(4-(4-(2,5-difluorobenzyl)-5-oxo-4,5-dihydro-1H-1,2,4-triazol-1-yl)-2-fluorophenoxy)-4-methylthiazole-2-carbonitrile], under setting [1], the IC50 was below 100 nM.

As for `Cc1nc(C(=O)NN)sc1Oc1ccc(-n2ncn(Cc3ccccc3F)c2=O)cc1F` [Example 596, 5-(2-fluoro-4-(4-(2-fluorobenzyl)-5-oxo-4,5-dihydro-1H-1,2,4-triazol-1-yl)phenoxy)-4-methylthiazole-2-carbohydrazide], the IC50 under setting [1] is below 100 nM.

For the molecule `Cc1nc(C(=O)NCCN2CCOCC2)sc1Oc1ccc(-n2ncn(Cc3c(F)cccc3F)c2=O)cc1F` [Example 24, 5-(4-(4-(2,6-diflurobenzyl)-5-oxo-4,5-dihydro-1H-1,2,4-triazol-1-yl)-2-fluorophenoxy)-4-methyl-N-(2-morpholinoethyl)thiazole-2-carboxamide], the IC50 under setting [2] was below 100 nM.

Take `Cc1nc(N2CCC(C)(C#N)C2)sc1Oc1ccc(-n2ncn(Cc3c(F)cccc3F)c2=O)cc1` (centres unmarked) [Example 454, 1-(5-(4-(4-(2,6-difluorobenzyl)-5-oxo-4,5-dihydro-1H-1,2,4-triazol-1-yl)phenoxy)-4-methylthiazol-2-yl)-3-methylpyrrolidine-3-carbonitrile]: under setting [3], the IC50 was below 100 nM.

Take `Cc1nc(CN2CCCC2)sc1Oc1ccc(-n2ncn(Cc3c(F)cccc3F)c2=O)cc1F` [Example 212, 4-(2,6-difluorobenzyl)-2-(3-fluoro-4-((4-methyl-2-(pyrrolidin-1-ylmethyl)thiazol-5-yl)oxy)phenyl)-2,4-dihydro-3H-1,2,4-triazol-3-one]: the IC50 under setting [1] is below 100 nM.

Regarding `Cc1nc(C2CC(C(N)=O)C2)sc1Oc1ccc(-n2ncn(Cc3c(F)cccc3F)c2=O)cc1F` (centres unmarked) [Example 113, 3-(5-(4-(4-(2,6-difluorobenzyl)-5-oxo-4,5-dihydro-1H-1,2,4-triazol-1-yl)-2-fluorophenoxy)-4-methylthiazol-2-yl)cyclobutane-1-carboxamide], the IC50 under setting [1] was below 100 nM.

For `Cc1nc(C=C2COC2)sc1Oc1ccc(-n2ncn(Cc3c(F)cccc3F)c2=O)cc1` [Example 547, 4-(2,6-difluorobenzyl)-2-(4-((4-methyl-2-(oxetan-3-ylidenemethyl)thiazol-5-yl)oxy)phenyl)-2,4-dihydro-3H-1,2,4-triazol-3-one], the IC50 under setting [1] was below 100 nM.

As to `COC1(C#N)CN(c2cc(Oc3ccc(-n4ncn(Cc5c(F)cccc5F)c4=O)cc3F)c(C)cn2)C1` [Example 239, 1-(4-(4-(4-(2,6-difluorobenzyl)-5-oxo-4,5-dihydro-1H-1,2,4-triazol-1-yl)-2-fluorophenoxy)-5-methylpyridin-2-yl)-3-methoxyazetidine-3-carbonitrile], the IC50 under setting [3] is below 100 nM.

With `O=c1n(Cc2c(F)cccc2F)cnn1-c1ccc(Oc2cc(N3CC4(CCCN4)C3)ncc2Cl)c(F)c1` [Example 412, 2-(4-((5-chloro-2-(2,5-diazaspiro[3.4]octan-2-yl)pyridin-4-yl)oxy)-3-fluorophenyl)-4-(2,6-difluorobenzyl)-2,4-dihydro-3H-1,2,4-triazol-3-one], the IC50 under setting [3] was 100 to 1000 nM.

In the case of `Cc1cnc(NC23CC(C#N)(C2)C3)cc1Oc1ccc(-n2ncn(Cc3c(F)cccc3F)c2=O)cc1Cl` [Example 267, 3-((4-(2-chloro-4-(4-(2,6-difluorobenzyl)-5-oxo-4,5-dihydro-1H-1,2,4-triazol-1-yl)phenoxy)-5-methylpyridin-2-yl)amino)bicyclo[1.1.1]pentane-1-carbonitrile], the IC50 under setting [3] is below 100 nM.

In the case of `CC1(C#N)CN(c2cccnc2OCc2ccc(-n3ncn(Cc4c(F)cccc4F)c3=O)cc2)C1` [Example 286, 1-(2-((4-(4-(2,6-difluorobenzyl)-5-oxo-4,5-dihydro-1H-1,2,4-triazol-1-yl)benzyl)oxy)pyridin-3-yl)-3-methylazetidine-3-carbonitrile], the IC50 under setting [3] lay within 100 to 1000 nM.

Consider `Cn1c(Oc2ccc(-n3nc(Cl)n(Cc4ccccc4)c3=O)cc2)cccc1=O` [Example 429, 6-(4-(4-benzyl-3-chloro-5-oxo-4,5-dihydro-1H-1,2,4-triazol-1-yl)phenoxy)-1-methylpyridin-2(1H)-one], for which, under setting [3], the IC50 is 100 to 1000 nM.

Consider `Cc1nc(C(=O)N2CCOCC2)sc1Oc1ccc(-n2nc3n(c2=O)[C@H](c2ccccc2)CC3)cc1F` (single isomer, unassigned) [Example 601], for which the IC50 under setting [1] is below 100 nM.

For `Cc1nc(NC23CC(C#N)(C2)C3)sc1Oc1ccc(-n2ncn(Cc3c(F)cccc3F)c2=O)cc1` [Example 45, 3-((5-(4-(4-(2,6-difluorobenzyl)-5-oxo-4,5-dihydro-1H-1,2,4-triazol-1-yl)phenoxy)-4-methylthiazol-2-yl)amino)bicyclo[1.1.1]pentane-1-carbonitrile], under setting [2], the IC50 was below 100 nM.

Regarding `Cn1nc(C(C)(C)O)cc1Oc1ccc(-n2ncn(Cc3c(F)cccc3F)c2=O)cc1F` [Example 134, 4-(2,6-difluorobenzyl)-2-(3-fluoro-4-((3-(2-hydroxypropan-2-yl)-1-methyl-1H-pyrazol-5-yl)oxy)phenyl)-2,4-dihydro-3H-1,2,4-triazol-3-one], the IC50 under setting [1] was below 100 nM.

`Cc1c(C#N)noc1Oc1ccc(-n2ncn(Cc3c(F)cccc3F)c2=O)cc1F` [Example 475, 5-(4-(4-(2,6-difluorobenzyl)-5-oxo-4,5-dihydro-1H-1,2,4-triazol-1-yl)-2-fluorophenoxy)-4-methylisoxazole-3-carbonitrile]: the IC50 under setting [3] is below 100 nM.

With `CC(C)(N)C1CN(c2cc(Oc3ccc(-n4ncn(Cc5c(F)cccc5F)c4=O)cc3F)c(F)cn2)C1` [Example 374, 2-(4-((2-(3-(2-aminopropan-2-yl)azetidin-1-yl)-5-fluoropyridin-4-yl)oxy)-3-fluorophenyl)-4-(2,6-difluorobenzyl)-2,4-dihydro-3H-1,2,4-triazol-3-one], under setting [3], the IC50 was in the range of 100 to 1000 nM.

For the molecule `O=c1n(Cc2c(F)cccc2F)cnn1-c1ccc(Oc2ccnc(N3CCOCC3)c2)cc1` [Example 526, 4-(2,6-difluorobenzyl)-2-(4-((2-morpholinopyridin-4-yl)oxy)phenyl)-2,4-dihydro-3H-1,2,4-triazol-3-one], the IC50 under setting [1] fell in the range of 1000 to 10000 nM.

On to `O=c1n(Cc2c(F)cccc2F)cnn1-c1ccc(Oc2ccnc(N3CC4(CCOCC4)C3)c2F)cc1` [Example 672, 4-(2,6-difluorobenzyl)-2-(4-((3-fluoro-2-(7-oxa-2-azaspiro[3.5]nonan-2-yl)pyridin-4-yl)oxy)phenyl)-2,4-dihydro-3H-1,2,4-triazol-3-one], for which the IC50 under setting [4] is below 100 nM.

`Cn1nc(C(N)=O)nc1Oc1ccc(-n2nc3n(c2=O)[C@H](c2ccccc2)CC3)cc1F` (single isomer, unassigned) [Example 692]: under setting [2], the IC50 was below 100 nM.

For `CNC(=O)c1nc(C)c(Oc2ccc(-n3ncn(Cc4ncccc4Cl)c3=O)cc2F)s1` [Example 589, 5-(4-(4-((3-chloropyridin-2-yl)methyl)-5-oxo-4,5-dihydro-1H-1,2,4-triazol-1-yl)-2-fluorophenoxy)-N,4-dimethylthiazole-2-carboxamide], the IC50 under setting [1] is below 100 nM.

On to `Cc1cc(N2CC(C)(N)C2)nn1Cc1ccc(-n2ncn(Cc3c(F)cccc3F)c2=O)cc1` [Example 537, 2-(4-((3-(3-amino-3-methylazetidin-1-yl)-5-methyl-1H-pyrazol-1-yl)methyl)phenyl)-4-(2,6-difluorobenzyl)-2,4-dihydro-3H-1,2,4-triazol-3-one], for which the IC50 under setting [1] was in the range of 1000 to 10000 nM.

Turning to `COc1ncccc1Cc1ccc(-n2ncn(Cc3c(F)cccc3F)c2=O)cc1` [Example 683, 4-(2,6-difluorobenzyl)-2-(4-((2-methoxypyridin-3-yl)methyl)phenyl)-2,4-dihydro-3H-1,2,4-triazol-3-one], the IC50 under setting [4] is below 100 nM.
